Assay results taken from patent publication US10624867B2, “Transdermally-delivered combination drug therapy for pain” (BioChemics, Inc., priority 2017, dated 2020).

Key:
[1] = tested on: Complete Freund's Adjuvant (CFA)-induced thermal hyperalgesia; assay: CFA inflammation model, thermal response (paw withdrawal latency to radiant heat), set A; type: in vivo, Sprague-Dawley rats; details: for thermal antihyperalgesia: topical cream to hindpaw, day 3 at 2 and 4 hours after treatment
Protocol: Baselines were established for all rats for thermal response latency before intraplantar (i.pl.) injection of the inflammatory agent. Three days after injection of the inflammatory agent (CFA), the degree of thermal hypersensitivity was determined followed by topical application to anesthetized rats of i) the drug-free cream, creams containing ii) ibuprofen, iii) gabapentin, and each the combination of ibuprofen with gabapentin using a topical cream optimized for deep skin penetration/vascular access. Six experimental groups were used in total Application of ibuprofen cream served both as an active pharmacological agent and positive control throughout these studies. The drug formulation and control cream (negative control) was applied to the glabrous side of the rat hindpaw using a previously published method. Nozaki-Taguchi, N. and T. L. Yaksh., Characterization of the Antihyperalgesic Action of a Novel Peripheral Mu-opioid Receptor Agonist-loperamide, Anesthesiology, 90: 225-234, 1999; Iadarola, M. J., et al., Increased Spinal Cord Dynorphin mRNA During Peripheral Inflammation, NIDA Re.s Monogr., 75: 406-409, 1986.
Rats were isoflurane-anesthetized (1-2%) and the cream (0.2 g) applied gently with a finger for 1 minute to the glabrous skin of the hindpaw. For low drug concentrations, 5% formulations of all drugs were. For high drug concentrations, 10% cream formulations were employed. […] Upon recovery from anesthesia (within 10 minutes of cessation of anesthetic), rats were moved to plexiglass enclosures for sensory assessment. Efficacy was initially tested at 1, 2, 4, 8, 24 hours after cream treatment; depending on initial results. Time was revised to track the onset and offset of drug effects.
(§1) Two parallel studies (two arms) were done, each with four treatment groups, with four Sprague-Dawley rats per group. The rats used were male rats weighing 175-200 grams. Half of the rats were given injections of 1:1 complete Freund's adjuvant (CFA) on day 0 to produce long-term inflammation of the left hindpaw; the other half of the rats were given spared nerve injury (SNI, transection of 2 of 3 branches of the sciatic nerve) in the lower thigh on day 0.
(§2) Before treatments, rats' baseline response thermal latencies (on a glass surface suspended above a moveable heat lamp) or mechanical thresholds (on a wire mesh surface suspended above a moveable electronic von Frey stimulator) were determined after 15 min acclimatization on the thermal or mechanical testing apparatuses.
(§3) The CFA model of persistent inflammatory hyperalgesia in one hindpaw of the rats was utilized (see Gold and Gebhart, Nature Medicine 16: 1248-1257, 2010). This model produces edema, reddening, inflammation, and behavioral hypersensitivity. Experimental groups of rats were anesthetized with isoflurane before receiving an intraplantar injection into the left hindpaw of 100 μl of CFA (1:1 with sterile PBS) using a sterile 0.5 ml syringe. The CFA model produced inflammatory signs accompanied by thermal and mechanical hyperalgesia in the injected hindpaw within six to eight hours. The hypersensitivity peaks at 3 days, which was the first testing day of the analgesic topical formulations in the CFA model.
One of four treatments was applied to each rat on days 3, 7 and 11 after CFA injection or on days 7, 14 and 21 after SNI application. […] For the formulations with ibuprofen and/or gabapentin, the formulation also contained vasodilators arginine and methyl nicotinate, chelator EDTA, solvents dimethyl acetamide and water, osmolyte potassium hydroxide, lipids soy bean oil and olive oil, and various other excipients including eucalyptol, gelcarin GP-379NF, glyceryl monostearate, menthol, methyl paraben, propylparaben, phenoxyethanol, permulen TR-1, phospolipon 90H, ST elastomer, urea, and Vitamin E TPGS. […]

[2] = tested on: CFA inflammation-induced mechanical hyperalgesia; assay: CFA inflammation model, mechanical response (von Frey stimulation), set A; type: in vivo, Sprague-Dawley rats; details: CFA rats
Description: as §1, §2, §3
One of four treatments was applied to each rat on days 3, 7 and 11 after CFA injection or on days 7, 14 and 21 after SNI application. […] For the formulations with ibuprofen and/or gabapentin, the formulation also contained vasodilators arginine and methyl nicotinate, chelator EDTA, solvents dimethyl acetamide and water, osmolyte potassium hydroxide, lipids soy bean oil and olive oil, and various other excipients including eucalyptol, gelcarin GP-379NF, glyceryl monostearate, menthol, methyl paraben, propylparaben, phenoxyethanol, permulen TR-1, phospolipon 90H, ST elastomer, urea, and Vitamin E TPGS.
For application of the topical formulation, the rats were anesthetized with isoflurane for 30 min. while the creams were applied to both hindpaws to minimize oral absorption as described in Nozaki-Taguchi et al., Anesthesiology 90: 225-234, 1999; Iadarola et al., NIDA Res. Monogr. 75: 406-409, 1986. […]
In these studies, the sensory responsiveness to thermal (radiant heat) stimuli was assessed in terms of time to elicit paw withdrawal. […] Sensory responses to mechanical stimulus (von Frey stimulation) were also assessed prior to CFA injection and following several days after inflammation (FIGS. 2A-2C) or nerve injury (FIGS. 4A-5C). […]

[3] = CFA rats, days 7 and 12 post-CFA
[4] = day 11 at 2 hours after treatment
[5] = day 12 at 2 hours after treatment

SMILES	thermal antihyperalgesia (possible efficacy) on later days [1, 3]	thermal antihyperalgesia ([1]; CFA rats)	suppression of thermal hyperalgesia ([1]; CFA rats, transdermal delivery, drug alone)	efficacy against mechanical hyperalgesia, agent given alone [2, 4]	efficacy against mechanical hyperalgesia, agent given alone [2, 5]	reversal of hyperalgesia ([1]; CFA rats, cream applied for 20 minutes, 1 hour after treatment on day 3 post-CFA)	duration of beneficial impact of the drug ([1]; CFA rats, day 3 post-CFA) [h]	hyperalgesia after 24 hours ([1]; CFA rats, day 3 post-CFA, 24 hours after treatment)	statistical significance of the effect ([1]; CFA rats, day 3 post-CFA, vs vehicle (ANOVA, Dunnett))	thermal antihyperalgesia (possible efficacy) on later days ([1]; CFA rats, days 7 and 11 post-CFA)	reversal of thermal hypersensitivity ([1]; FIGS. 1A-1C, at some time points during the testing period)
NCC1(CC(=O)O)CCCCC1 [gabapentin]	not repeated	borderline significant	failed to suppress	efficacious	efficacious	–	–	–	–	–	–
CC(C)Cc1ccc(C(C)C(=O)O)cc1 (stereo not drawn) [ibuprofen, 2-[4-(2-methylpropyl)phenyl]propanoic acid]	not repeated	borderline significant	–	efficacious	efficacious	completely reversed	4	completely returned to the baseline level	statistically significant	not repeated	significant reversal
